One compound from patent publication US20100004333A1, “COMPOSITIONS AND METHODS FOR TREATING CARDIOVASCULAR DISORDERS” (priority 2004, published 2010) can be followed below.

Marks after values point to notes of the source that are not given here.

The subject of the test is apoE−/− mice. Kind of test: Histology of lesions: total cells, macrophages (F4/80), extra-cellular matrix (collagen) in apoE−/− mice. It counts as in vivo. The note with it: for % ECM of total lesion area / % Mφ of total lesion area / ECM area / Lesion area (extra-cellular matrix series) / Lesion area (macrophage series) / Mφ area / Lesion area (total cell density series) / Total cells/μm^2 / Total number of cells: mean ± SD. From the text:
The materials and methods used were essentially as described under Example 1. In addition, for total cell numbers, nuclei were counted in hematoxylin and eosin-stained sections and expressed per lesion area. At the sinus, sections were taken ˜200 μm from the first appearance of the leaflets. Sections at the thoracic and abdominal aorta were taken at the branch point of the 3rd pair of intra-costal arteries and the celiac artery, respectively. For macrophages, 4 μm paraffin sections were deparaffinized, rehydrated and endogenous peroxidase quenched with 3% hydrogen peroxide (15 min). Enzymatic antigen retrieval was performed in trypsin (1 mg/mL) solutions pH 7.7 containing 4 mM CaCl2 and 200 mM Tris for 30 min at 37° C., followed by a 20 min incubation in 5% normal rabbit blocking serum. Sections were then incubated overnight in a humidified chamber and at 4° C. with monoclonal rat-anti-mouse F4/80 antibody (Caltag Laboratories; dilution 1:20), followed by biotinylated rabbit anti-rat IgG (Vector Laboratories; dilution 1:200, 30 min), Vectorstain Elite ABC reagent (Vectorstain Elite ABC Kit, Vector Laboratories; 30 min), and 3,3′-diaminobenzidine substrate-chromogen (Dako Corporation) with counterstaining using Harris hematoxylin. Images were captured using a Zeiss Axiophot Photomicroscope, and the area staining positive for F4/80 antigen expressed as a percentage of the total lesion area. Collagen was determined as described in Histochemical Journal 1979, 11:447-455. Briefly, 4 μm sections were deparaffinized, rehydrated and stained with 0.1% Sirius red (Fast red F3B) in saturated aqueous picric acid (pH 2.0) for 1 h at room temperature and then transferred to a solution of 0.01 N HCl for 2 min followed by counterstaining in Harris hematoxylin for 1 min. Total lesion area were measured from bright field images captured with an Olympus BX60 photomicroscope attached with a SPOT digital camera, whereas the birefringent area staining positive for Sirius red was detected using polarization microscopy and expressed as a percentage of the total lesion area at that site.

[1] abbreviates: descending aorta, versus control.

On to `CC(C)(Sc1cc(C(C)(C)C)c(O)c(C(C)(C)C)c1)Sc1cc(C(C)(C)C)c(O)c(C(C)(C)C)c1` [probucol], for which, under “Sinus, n = 6”, the “% ECM of total lesion area” value is 66±13%, the “% Mφ of total lesion area” value is 14 ± 5^a %, the ECM area is on record as 577 ± 126^a μm^2 × 10^−3 and the “Lesion area (extra-cellular matrix series)” value is 878 ± 153^a μm^2 × 10^−3. For the same compound, where the note is “Sinus, n = 6”, the “Lesion area (macrophage series)” value is 886 ± 89^a μm^2 × 10^−3 and the Mφ area is on record as 127 ± 53 ^ μm^2 × 10^−3. Besides, the “% ECM of total lesion area” value (Sinus, n = 6, listed as Probucol) is listed as 66 ± 13^a %. Moreover, for the setting “Sinus, n = 8”, the “Lesion area (total cell density series)” value was 889 ± 254^a μm^2 × 10^−3, the “Total cells/μm^2” value was 1.7 ± 0.6^a cells/μm^2 and the “Total number of cells” value is given as 1423 ± 441 ^. Besides, under “T/A, n = 6”, the “% ECM of total lesion area” value was 0.0 ± 0.0^a %, the “% Mφ of total lesion area” value is 99.4 ± 1.4 ^ %, the ECM area is on record as 0.0 ± 0.0^a μm^2 × 10^−3 and the “Lesion area (extra-cellular matrix series)” value is given as 13 ± 3^a μm^2 × 10^−3. Further, where the note is “T/A, n = 6”, the “Lesion area (macrophage series)” value was 22 ± 15^a μm^2 × 10^−3, the “Lesion area (total cell density series)” value was 22 ± 15^a μm^2 × 10^−3, the Mφ area is 21 ± 12^a μm^2 × 10^−3 and the “Total cells/μm^2” value is 0.36 ± 0.39^ cells/μm^2. Further, the “Total number of cells” value (T/A, n = 6) is recorded as 10 ± 13^a. Also, under setting [1], the Decrease in macrophages is recorded as about 91% and the “Decrease in total cell numbers” value is about 91%. Besides, the “Decrease in percentage of lesion area covered by macrophages” value (sinus, versus control) is on record as about 50%.
